# Laboratory results from patent publication US7175855B1, “Ziprasidone suspension” (Pfizer Inc., priority 1999, dated 2007).
# Assay: Ability of surfactants to wet ziprasidone HCl monohydrate in water (drug wetting time)
# Assay type: physicochemical
# Method: Different surfactants were tested for their ability to wet ziprasidone HCl monohydrate in water: sodium lauryl sulfate (SLS), MIGLYOL® (registered trademark of Dynamit Nobel Aktiengesellschaft, Germany) Triglyceride (810), and polysorbate-80. In three separate 100 mL volumes of water, each surfactant listed above was added in an amount to make a 1% solution. MIGLYOL® was added in excess due to its low solubility. While stirring at 200 rpm with an overhead stirrer, to each of the three surfactant solutions was added 1.132 g of ziprasidone […] (equivalent to 10 mgA/ml).
smiles,measurement,setting,value
"CCCCCCCCCCCCOS(=O)(=O)[O-].[Na+] [SLS, sodium lauryl sulfate]",observed rate of wetting,"1% surfactant solution in 100 mL water (MIGLYOL in excess), 1.132 g ziprasidone (10 mgA/ml), stirring at 200 rpm",>20 min
same,foaming during wetting (in words),wetting agents tested with ziprasidone hydrochloride in water,caused foaming before adequate wetting could be obtained
